According to US9410152B2, “Use of microrna molecules to influence skin pigmentation” (CHANEL PARFUMS BEAUTE, priority 2011, dated 2016):
Entries after “also recorded” stand apart in the source; their conditions may differ.

Tests used:
Type in all cases: cell-based, human
mRNA MITF-M = test: qRT-PCR mRNA expression of MITF-M; settings: MNT-1 cells, 50 nM mimetic, day 12, relative to cel-miR-239b, ΔΔCt
Experimental: (§1) 4×10^5 MNT-1 cells were seeded per well in a 6-well plate (#353046, Falcon) on day-1. On day 0, the cells were transfected with 50 nM of mimetic of the miRNAs (hsa-mir-137 # C-300604-07-005, hsa-mir-7 # C-300547-05-0005, hsa-mir-330-5p # C-301082-01-0005, negative control # NC-002000-01-05, Dharmacon), using 5 μL of Lipofectamine 2000 (#1668-019, Invitrogen). On day 1, the medium was changed. On day 3, the cells were trypsinized and seeded at 4×10^5 cells per well. On day 4, the cells were transfected again with 50 nM of mimetic of the miRNAs (see day 0). On day 5, the medium was changed. On day 7, the cells were trypsinized and seeded at 4×10^5 cells per well. On day 8, the cells were transfected with 50 nM of mimetic of the miRNAs (see day 0). On day 9, the medium was changed. On day 10, the cells were trypsinized and divided into two (from one by six wells to two by six wells). On day 12, one six-well plate was used for lysis of the RNA and the other for lysis of the proteins. As positive control of depigmentation, MNT-1 cells were incubated with 3.5 mM of kojic acid (Sigma K3125-5G) for 12 days. The cells were distributed as described and the kojic acid was renewed with the medium every 4 days. The percentage inhibition of the kojic acid is of the order of 10%. 700 μL of Qiazol lysis buffer (Qiagen) was added per well of a six-well dish after washing the cells twice with PBS. The total RNA was isolated using the miRNeasy Mini kit (Qiagen) according to the manufacturer's protocol. The total RNA was eluted in 30 μl of water without RNAse. The concentration of RNA was measured using the NanoVue spectrophotometer (GE Healthcare). 1 μg of total RNA was reverse-transcribed using the MLV RT-Enzyme system (Invitrogen) in 60 μL of reaction to produce the corresponding cDNA. […] The concentrations of primers and the sequences are given in Table 5 below: The relative quantity was evaluated using the ΔΔCt comparative method. Briefly, this method compares the quantity of expression of the target gene relative to an endogenous control TBP, within a sample for normalizing the expression. […]

mRNA TYRP1 = test: qRT-PCR mRNA expression of TYRP1; settings: MNT-1 cells, 50 nM mimetic, day 12, relative to cel-miR-239b, ΔΔCt
Experimental: as §1

MITF = test: Western blot of MITF protein; settings: MNT-1 cells, 50 nM mimetic, day 12
Experimental: (§2) 4×10^5 MNT-1 cells were seeded per well in a 6-well plate (#353046, Falcon) on day-1. On day 0, the cells were transfected with 50 nM of mimetic of the miRNAs (hsa-mir-137 # C-300604-07-005, hsa-mir-7 # C-300547-05-0005, hsa-mir-330-5p # C-301082-01-0005, negative control # NC-002000-01-05, Dharmacon), using 5 μL of Lipofectamine 2000 (#1668-019, Invitrogen). On day 1, the medium was changed. On day 3, the cells were trypsinized and seeded at 4×10^5 cells per well. On day 4, the cells were transfected again with 50 nM of mimetic of the miRNAs (see day 0). On day 5, the medium was changed. On day 7, the cells were trypsinized and seeded at 4×10^5 cells per well. On day 8, the cells were transfected with 50 nM of mimetic of the miRNAs (see day 0). On day 9, the medium was changed. On day 10, the cells were trypsinized and divided into two (from one by six wells to two by six wells). On day 12, one six-well plate was used for lysis of the RNA and the other for lysis of the proteins. As positive control of depigmentation, MNT-1 cells were incubated with 3.5 mM of kojic acid (Sigma K3125-5G) for 12 days. The cells were distributed as described and the kojic acid was renewed with the medium every 4 days. The percentage inhibition of the kojic acid is of the order of 10%. […] The concentration of proteins was determined with the BCA Protein Assay (ThermoFisher). […]

TYR proteins = test: Western blot of TYR protein; settings: MNT-1 cells, 50 nM mimetic, day 12
Experimental: as §2

mRNA MLANA = test: qRT-PCR mRNA expression of MLANA; settings: MNT-1 cells, 50 nM mimetic, day 12, relative to cel-miR-239b, ΔΔCt
Experimental: as §1

| Substance | levels of mRNA MITF-M (mRNA MITF-M; listed as miR-7) | levels of mRNA TYRP1 (mRNA TYRP1; listed as miR-7) | level of protein MITF (Western blot) (MITF) | content of TYR proteins (Western blot) (TYR proteins) | levels of mRNA MLANA (mRNA MLANA; listed as miR-7) | levels of mRNA MITF-M (mRNA MITF-M) | levels of mRNA MITF-M (mRNA MITF-M; listed as miR-137) | levels of mRNA TYRP1 (mRNA TYRP1) | levels of mRNA TYRP1 (mRNA TYRP1; listed as miR-137) | levels of mRNA MLANA (mRNA MLANA) | levels of mRNA MLANA (mRNA MLANA; listed as miR-137) |
| --- | --- | --- | --- | --- | --- | --- | --- | --- | --- | --- | --- |
| hsa-miR-7: mimetic of miRNA hsa-mir-7 (Dharmacon C-300547-05-0005); mature hsa-miR-7-5p sequence SEQ ID NO: 2 (UGGAAGACUAGUGAUUUUGUUGU; commercial mimic, chemistry not given here; listed as Homo sapiens) | appears to reduce; also recorded: slightly reduced | appears to reduce; also recorded: slightly reduced | decreases | decreases | appears to reduce; also recorded: slightly reduced |  |  |  |  |  |  |
| hsa-miR-137: mimetic of miRNA hsa-mir-137 (Dharmacon C-300604-07-005); mature sequence SEQ ID NO: 3 (UUAUUGCUUAAGAAUACGCGUAG; commercial mimic, chemistry not given here; listed as Homo sapiens) |  |  | eliminates |  |  | significantly reduced | considerably reduced | significantly reduced | considerably reduced | significantly reduced | considerably reduced |
| hsa-miR-330-5p: mimetic of miRNA hsa-mir-330-5p (Dharmacon C-301082-01-0005); mature sequence 5'-UCUCUGGGCCUGUGUCUUAGGC-3' (SEQ ID NO: 1) (UCUCUGGGCCUGUGUCUUAGGC; mimic duplex, passenger strand not given here; listed as Homo sapiens) |  |  |  | decreased |  |  |  |  |  |  |  |
